The text below walks through data of patent US12643896B2, “Dicyclopropylmethyl derivatives as IL-17 modulators” (UCB Biopharma SRL, priority 2020, dated 2026).

pIC50: −log10 of the molar value.

The target of the test is T1, IL-17A (Homo sapiens, UniProt Q16552).
T1 sequence (Q16552 24-155): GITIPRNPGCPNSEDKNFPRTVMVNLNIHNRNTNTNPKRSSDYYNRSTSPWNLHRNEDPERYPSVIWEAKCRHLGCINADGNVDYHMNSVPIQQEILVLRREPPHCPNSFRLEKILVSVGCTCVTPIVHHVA
Description: Inhibition of IL-17A induced IL-6 release from dermal fibroblast cell line (HDF cell line assay). In kind it is cell-based. The following applies: human dermal fibroblasts (HDF) stimulated with IL-17A 50 pM + TNF-α 25 pM; IL-6 measured by HTRF; pIC50 = −log10[IC50], IC50 molar. From the text:
Inhibition of IL-17A Induced IL-6 Release from Dermal Fibroblast Cell Line
The purpose of this assay is to test the neutralising ability to IL-17 proteins, in a human primary cell system. Stimulation of normal human dermal fibroblasts (HDF) with IL-17 alone produces only a very weak signal but in combination with certain other cytokines, such as TNFα, a synergistic effect can be seen in the production of inflammatory cytokines, i.e. IL-6.
HDFs were stimulated with IL-17A (50 pM) in combination with TNF-α (25 pM). The resultant IL-6 response was then measured using a homogenous time-resolved FRET kit from Cisbio. The kit utilises two monoclonal antibodies, one labelled with Eu-Cryptate (Donor) and the second with d2 or XL665 (Acceptor). The intensity of the signal is proportional to the concentration of IL-6 present in the sample (Ratio is calculated by 665/620×104).
The ability of a compound to inhibit IL-17 induced IL-6 release from human dermal fibroblasts is measured in this assay.
HDF cells (Sigma #106-05n) were cultured in complete media (DMEM+10% FCS+2 mM L-glutamine) and maintained in a tissue culture flask using standard techniques. Cells were harvested from the tissue culture flask on the morning of the assay using TrypLE (Invitrogen #12605036). The TrypLE was neutralised using complete medium (45 mL) and the cells were centrifuged at 300×g for 3 minutes. The cells were re-suspended in complete media (5 mL) counted and adjusted to a concentration of 3.125×10^4 cells/mL before being added to the 384 well assay plate (Corning #3701) at 40 μL per well. The cells were left for a minimum of three hours, at 37° C./5% CO2, to adhere to the plate.
Compounds were serially diluted in DMSO before receiving an aqueous dilution into a 384 well dilution plate (Greiner #781281), where 5 μL from the titration plate was transferred to 45 μL of complete media and mixed to give a solution containing 10% DMSO.
Mixtures of TNFα and IL-17 cytokine were prepared in complete media to final concentrations of TNFα 25 pM/IL-17A 50 pM, then 30 μL of the solution was added to a 384 well reagent plate (Greiner #781281).
10 μL from the aqueous dilution plate was transferred to the reagent plate containing 30 μL of the diluted cytokines, to give a 2.5% DMSO solution. The compounds were incubated with the cytokine mixtures for 5 h at 37° C. After the incubation, 10 μL was transferred to the assay plate, to give a 0.5% DMSO solution, then incubated for 18-20 h at 37° C./5% CO2.
From the Cisbio IL-6 FRET kit (Cisbio #62IL6PEB) europium cryptate and Alexa 665 were diluted in reconstitution buffer and mixed 1:1, as per kit insert. To a white low volume 384 well plate (Greiner #784075) were added FRET reagents (10 μL), then supernatant (10 μL) was transferred from the assay plate to Greiner reagent plate. The mixture was incubated at room temperature for 3 h with gentle shaking (<400 rpm) before being read on a Synergy Neo 2 plate reader (Excitation: 330 nm; Emission: […]).
(In general: TR-FRET usually uses a lanthanide donor and a delayed reading to cut background.)
A word on the pIC50: it is the negative decadic logarithm of the IC50, by convention in mol/L. Take `Cc1nonc1C(=O)N[C@@H](c1nc2nc([C@H]3CC(F)(F)CCN3C(=O)C34CC(F)(C3)C4)ccc2[nH]1)C(C1CC1)C1CC1` (single isomer, unassigned) [Example 3]: the pIC50 was 4.80. As for `Cc1nonc1C(=O)N[C@@H](c1nc2nc([C@@H]3CC(F)(F)CCN3C(=O)C34CC(F)(C3)C4)ccc2[nH]1)C(C1CC1)C1CC1` (single isomer, unassigned) [Example 4], the figure is 5.50; as for `Cc1nonc1C(=O)N[C@H](c1nc2nc([C@H]3CC(F)(F)CCN3C(=O)C34CC(F)(C3)C4)ccc2[nH]1)C(C1CC1)C1CC1` (single isomer, unassigned) [Example 5], 6.40; as for `Cc1nonc1C(=O)N[C@H](c1nc2nc([C@@H]3CC(F)(F)CCN3C(=O)C34CC(F)(C3)C4)ccc2[nH]1)C(C1CC1)C1CC1` (single isomer, unassigned) [Example 6], 7.90. Then `Cc1nonc1C(=O)N[C@H](c1nc2nc([C@H]3C[C@](O)(C(F)(F)F)CCN3C(=O)C34CC(F)(C3)C4)ccc2[nH]1)C(C1CC1)C1CC1` (single isomer, unassigned) [Example 7], with 5.60; and `Cc1nonc1C(=O)N[C@H](c1nc2nc([C@@H]3C[C@@](O)(C(F)(F)F)CCN3C(=O)C34CC(F)(C3)C4)ccc2[nH]1)C(C1CC1)C1CC1` (single isomer, unassigned) [Example 8], with 8.10; and `Cc1nonc1C(=O)N[C@@H](c1nc2nc([C@H]3C[C@](O)(C(F)(F)F)CCN3C(=O)C34CC(F)(C3)C4)ccc2[nH]1)C(C1CC1)C1CC1` (single isomer, unassigned) [Example 9], with less than 5.00.

For `O=C(N[C@H](c1nc2nc([C@@H]3C[C@@](O)(C(F)F)CCN3C(=O)C34CC(F)(C3)C4)ccc2[nH]1)C(C1CC1)C1CC1)C1(F)CC1` (single isomer, unassigned) [Example 11], the pIC50 was 8.30. Then `O=C(N[C@H](c1nc2nc([C@H]3C[C@](O)(C(F)F)CCN3C(=O)C34CC(F)(C3)C4)ccc2[nH]1)C(C1CC1)C1CC1)C1(F)CC1` (single isomer, unassigned) [Example 12], with 6.10; and `O=C(N1CCC(F)(F)CC1c1ccc2[nH]c(C(NC(=O)C3(C(F)(F)F)CC3)C(C3CC3)C3CC3)nc2n1)C12CC(F)(C1)C2` (centres unmarked) [Example 1, N-(2,2-Dicyclopropyl-1-{5-[4,4-difluoro-1-(3-fluorobicyclo[1.1.1]pentane-1-carbonyl)-piperidin-2-yl]-1H-imidazo[4,5-b]pyridin-2-yl}ethyl)-1-(trifluoromethyl)cyclopropane-carboxamide], with 7.20; and `Cc1nonc1C(=O)NC(c1nc2nc(C3CC(F)(F)CCN3C(=O)C34CC(F)(C3)C4)ccc2[nH]1)C(C1CC1)C1CC1` (centres unmarked) [Example 2, N-(2,2-Dicyclopropyl-1-{5-[4,4-difluoro-1-(3-fluorobicyclo[1.1.1]pentane-1-carbonyl)-piperidin-2-yl]-1H-imidazo[4,5-b]pyridin-2-yl}ethyl)-4-methyl-1,2,5-oxadiazole-3-carboxamide], with 7.20.
